For the assay, the target named is T1, JAK3 (Homo sapiens, UniProt P52333).
T1 construct: endogenous in cells; host or cells: mixed Molt4/Ramos lysate (1:2)
T1 sequence (P52333 1-1124): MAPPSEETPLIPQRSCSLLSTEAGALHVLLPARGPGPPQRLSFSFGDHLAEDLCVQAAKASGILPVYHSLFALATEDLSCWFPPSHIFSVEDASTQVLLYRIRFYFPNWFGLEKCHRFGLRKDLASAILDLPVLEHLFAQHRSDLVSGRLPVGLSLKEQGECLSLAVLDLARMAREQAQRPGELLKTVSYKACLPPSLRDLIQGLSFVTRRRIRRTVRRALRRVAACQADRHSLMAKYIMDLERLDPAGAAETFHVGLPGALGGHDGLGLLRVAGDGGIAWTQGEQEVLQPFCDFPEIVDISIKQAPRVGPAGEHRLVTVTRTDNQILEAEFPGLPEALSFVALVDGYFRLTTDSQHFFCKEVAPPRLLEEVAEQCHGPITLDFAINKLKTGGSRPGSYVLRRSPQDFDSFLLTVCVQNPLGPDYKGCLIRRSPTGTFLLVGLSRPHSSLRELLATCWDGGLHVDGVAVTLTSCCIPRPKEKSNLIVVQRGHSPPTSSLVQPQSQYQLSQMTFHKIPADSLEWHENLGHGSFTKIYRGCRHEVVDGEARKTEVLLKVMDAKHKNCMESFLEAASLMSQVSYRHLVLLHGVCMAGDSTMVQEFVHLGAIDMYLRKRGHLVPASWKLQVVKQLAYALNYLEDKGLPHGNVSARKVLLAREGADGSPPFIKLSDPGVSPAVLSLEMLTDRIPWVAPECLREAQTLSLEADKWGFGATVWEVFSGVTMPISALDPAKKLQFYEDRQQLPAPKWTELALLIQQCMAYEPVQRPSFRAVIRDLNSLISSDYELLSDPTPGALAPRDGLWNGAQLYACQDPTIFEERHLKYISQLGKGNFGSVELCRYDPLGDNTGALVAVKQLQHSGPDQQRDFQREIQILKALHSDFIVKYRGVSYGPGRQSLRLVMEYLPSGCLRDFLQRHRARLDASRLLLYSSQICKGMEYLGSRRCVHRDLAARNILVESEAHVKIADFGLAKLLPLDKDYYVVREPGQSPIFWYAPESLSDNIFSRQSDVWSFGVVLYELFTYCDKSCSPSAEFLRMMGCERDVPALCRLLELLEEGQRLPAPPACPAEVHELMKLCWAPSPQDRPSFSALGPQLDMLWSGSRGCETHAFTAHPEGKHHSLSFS
As to the kind of experiment: Kinobeads assay, JAK3. The assay is classed as binding. Particulars: mixed Molt4/Ramos lysate, read-out: Inhibition values (IC50) JAK3. In short, it runs like this:
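Competition binding in mixed Molt4/Ramos cell lysate (1:2, 10 mg/mL protein) with Kinobeads carrying immobilized aminopyrido-pyrimidine ligand, 3 h in cold room; 9-step 1:3 compound dilution series from 5 mM DMSO stock. Bead-bound JAK2/JAK3 eluted and quantified by antibody dot blot with infrared detection; IC50 from dose-response curves.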

Each structure is given as a SMILES string.

By IC50 is commonly meant the concentration that inhibits the measured activity by half. On to `OCCn1cc(Nc2ncc3cnn(Cc4cccc(N5CCNCC5)c4F)c3n2)cn1` [Example 83, 2-(4-((1-(2-Fluoro-3-(piperazin-1-yl)benzyl)-1H-pyrazolo[3,4-d]pyrimidin-6-yl)amino)-1H-pyrazol-1-yl)ethanol], for which the IC50 is < 100 nM.
Take `OCCn1cc(Nc2ncc3cnn(Cc4c(F)c(F)cc(N5CCOCC5)c4F)c3n2)cn1` [Example 45, 2-(4-((1-(2,3,6-Trifluoro-5-morpholinobenzyl)-1H-pyrazolo[3,4-d]pyrimidin-6-yl)amino)-1H-pyrazol-1-yl)ethanol]: the IC50 was < 100 nM.
For the molecule `Cn1cc(Nc2ncc3cnn(Cc4cc(N5CCOCC5=O)cc(F)c4F)c3n2)cn1` [Example 53, 4-(3,4-Difluoro-5-((6-((1-methyl-1H-pyrazol-4-yl)amino)-1H-pyrazolo[3,4-d]pyrimidin-1-yl)methyl)phenyl)morpholin-3-one], the IC50 is < 100 nM.
Turning to `c1cc(Cn2ncc3cnc(Nc4cnn(CC5CCCNC5)c4)nc32)cc(N2CCOCC2)c1` (stereo not drawn) [Example 48, 1-(3-Morpholinobenzyl)-N-(1-(piperidin-3-ylmethyl)-1H-pyrazol-4-yl)-1H-pyrazolo[3,4-d]pyrimidin-6-amine], the IC50 was < 100 nM.
For `COC1CCN(c2cccc(Cn3ncc4cnc(Nc5cnn(C)c5)nc43)c2)CC1` [Example 77, 1-(3-(4-Methoxypiperidin-1-yl)benzyl)-N-(1-methyl-1H-pyrazol-4-yl)-1H-pyrazolo[3,4-d]pyrimidin-6-amine], the IC50 is < 100 nM.
As for `O=C1COCCN1c1cc(F)cc(Cn2ncc3cnc(Nc4cnn(CCO)c4)nc32)c1` [Example 58, 4-(3-Fluoro-5-((6-((1-(2-hydroxyethyl)-1H-pyrazol-4-yl)amino)-1H-pyrazolo[3,4-d]pyrimidin-1-yl)methyl)phenyl)morpholin-3-one], the figure is < 100 nM; as for `c1cc(Cn2ncc3cnc(Nc4cnn(CC5CCNC5)c4)nc32)cc(N2CCOCC2)c1` (stereo not drawn) [Example 60, 1-(3-Morpholinobenzyl)-N-(1-(pyrrolidin-3-ylmethyl)-1H-pyrazol-4-yl)-1H-pyrazolo[3,4-d]pyrimidin-6-amine], < 100 nM.
As to `OCCn1cc(Nc2ncc3cnn(Cc4c(F)ccc(N5CCOCC5)c4F)c3n2)cn1` [Example 82, 2-(4-((1-(2,6-Difluoro-3-morpholinobenzyl)-1H-pyrazolo[3,4-d]pyrimidin-6-yl)amino)-1H-pyrazol-1-yl)ethanol], the IC50 is < 100 nM.
As for `Cn1cc(Nc2ncc3cnn(Cc4cc(F)cc(N5CCOCC5)c4)c3n2)cn1` [Example 49, 1-(3-Fluoro-5-morpholinobenzyl)-N-(1-methyl-1H-pyrazol-4-yl)-1H-pyrazolo[3,4-d]pyrimidin-6-amine], the IC50 was < 100 nM.
In the case of `Cn1cc(Nc2ncc3cnn(Cc4cc(F)cc(C(=O)N5CCNCC5)c4)c3n2)cn1` [Example 80, (3-Fluoro-5-((6-((1-methyl-1H-pyrazol-4-yl)amino)-1H-pyrazolo[3,4-d]pyrimidin-1-yl)methyl)phenyl)(piperazin-1-yl)methanone], the IC50 is < 100 nM.
As for `Cn1cc(Nc2ncc3cnn(Cc4c(F)c(F)cc(N5CCNCC5)c4F)c3n2)cn1` [Example 66, N-(1-Methyl-1H-pyrazol-4-yl)-1-(2,3,6-trifluoro-5-(piperazin-1-yl)benzyl)-1H-pyrazolo[3,4-d]pyrimidin-6-amine], the figure is < 100 nM.
Take `Cn1cc(Nc2ncc3cnn(Cc4cc(F)cc(N5CCNCC5=O)c4)c3n2)cn1` [Example 64, 1-(3-Fluoro-5-((6-((1-methyl-1H-pyrazol-4-yl)amino)-1H-pyrazolo[3,4-d]pyrimidin-1-yl)methyl)phenyl)piperazin-2-one]: the IC50 was < 100 nM.
Take `OCCn1cc(Nc2ncc3cnn(Cc4cc(F)cc(N5CCOCC5)c4)c3n2)cn1` [Example 51, 2-(4-((1-(3-Fluoro-5-morpholinobenzyl)-1H-pyrazolo[3,4-d]pyrimidin-6-yl)amino)-1H-pyrazol-1-yl)ethanol]: the IC50 was < 100 nM.
The value for `CNC(=O)Cn1cc(Nc2ncc3cnn(Cc4cc(F)cc(N5CCOCC5=O)c4)c3n2)cn1` [Example 68, 2-(4-((1-(3-Fluoro-5-(3-oxomorpholino)benzyl)-1H-pyrazolo[3,4-d]pyrimidin-6-yl)amino)-1H-pyrazol-1-yl)-N-methylacetamide] was < 100 nM; that for `OCCn1cc(Nc2ncc3cnn(Cc4cccc(N5CCNCC5)c4)c3n2)cn1` [Example 47, 2-(4-((1-(3-(piperazin-1-yl)benzyl)-1H-pyrazolo[3,4-d]pyrimidin-6-yl)amino)-1H-pyrazol-1-yl)ethanol] was < 100 nM; that for `Cn1cc(Nc2ncc3cnn(Cc4c(F)ccc(N5CCOCC5=O)c4F)c3n2)cn1` [Example 69, 4-(2,4-Difluoro-3-((6-((1-methyl-1H-pyrazol-4-yl)amino)-1H-pyrazolo[3,4-d]pyrimidin-1-yl)methyl)phenyl)morpholin-3-one] was < 100 nM.
With `OCCn1cc(Nc2ncc3cnn(Cc4cc(N5CCOCC5)ccc4F)c3n2)cn1` [Example 44, 2-(4-((1-(2-Fluoro-5-morpholinobenzyl)-1H-pyrazolo[3,4-d]pyrimidin-6-yl)amino)-1H-pyrazol-1-yl)ethanol], the IC50 is < 100 nM.
For `Cn1cc(Nc2ncc3cnn(Cc4cc(F)cc(C(=O)N5CCOCC5)c4)c3n2)cn1` [Example 79, (3-Fluoro-5-((6-((1-methyl-1H-pyrazol-4-yl)amino)-1H-pyrazolo[3,4-d]pyrimidin-1-yl)methyl)phenyl)(morpholino)methanone], the IC50 is < 100 nM.
For the molecule `O=C1CNCCN1c1cc(F)cc(Cn2ncc3cnc(Nc4cnn(CCO)c4)nc32)c1` [Example 63, 1-(3-Fluoro-5-((6-((1-(2-hydroxyethyl)-1H-pyrazol-4-yl)amino)-1H-pyrazolo[3,4-d]pyrimidin-1-yl)methyl)phenyl)piperazin-2-one], the IC50 was < 100 nM.
As to `CN(C)CCCn1cc(Nc2ncc3cnn(Cc4c(F)ccc(N5CCOCC5=O)c4F)c3n2)cn1` [Example 75, 4-(3-((6-((1-(3-(Dimethylamino)propyl)-1H-pyrazol-4-yl)amino)-1H-pyrazolo[3,4-d]pyrimidin-1-yl)methyl)-2,4-difluorophenyl)morpholin-3-one], the IC50 was < 100 nM.
As for `Cn1cc(Nc2ncc3cnn(Cc4cc(F)cc(N5CCOCC5=O)c4)c3n2)cn1` [Example 52, 4-(3-Fluoro-5-((6-((1-methyl-1H-pyrazol-4-yl)amino)-1H-pyrazolo[3,4-d]pyrimidin-1-yl)methyl)phenyl)morpholin-3-one], the figure is < 100 nM; as for `OCCn1cc(Nc2ncc3cnn(Cc4cc(N5CCOCC5)cc(F)c4F)c3n2)cn1` [Example 56, 2-(4-((1-(2,3-Difluoro-5-morpholinobenzyl)-1H-pyrazolo[3,4-d]pyrimidin-6-yl)amino)-1H-pyrazol-1-yl)ethanol], < 100 nM.
Turning to `O=C1CNCCN1c1cccc(Cn2ncc3cnc(Nc4cnn(CCO)c4)nc32)c1` [Example 57, 1-(3-((6-((1-(2-Hydroxyethyl)-1H-pyrazol-4-yl)amino)-1H-pyrazolo[3,4-d]pyrimidin-1-yl)methyl)phenyl)piperazin-2-one], the IC50 is < 100 nM.
Turning to `O=C1COCCN1c1cc(F)cc(Cn2ncc3cnc(Nc4cn[nH]c4)nc32)c1` [Example 84, 4-(3-((6-((1H-Pyrazol-4-yl)amino)-1H-pyrazolo[3,4-d]pyrimidin-1-yl)methyl)-5-fluorophenyl)morpholin-3-one], the IC50 is < 100 nM.
